# Source: ChEMBL document CHEMBL4308906, “Design and synthesis of selective CYP1B1 inhibitor via dearomatization of α-naphthoflavone” (Bioorg Med Chem, 2019)
# Key:
# Cytochrome P450 1B1 [1] = target: T1, Cytochrome P450 1B1 (Homo sapiens, UniProt Q16678); assay: Inhibition of human recombinant CYP1B1 using 7-ethoxyresorufin as substrate assessed as percent enzyme activity at 1 uM after 30 mins in presence of NADPH by EROD assay relative to control; parameters: scale not given: the % may be the effect or the level left; details: read-out: Activity
# T1 sequence (Q16678 whole entry): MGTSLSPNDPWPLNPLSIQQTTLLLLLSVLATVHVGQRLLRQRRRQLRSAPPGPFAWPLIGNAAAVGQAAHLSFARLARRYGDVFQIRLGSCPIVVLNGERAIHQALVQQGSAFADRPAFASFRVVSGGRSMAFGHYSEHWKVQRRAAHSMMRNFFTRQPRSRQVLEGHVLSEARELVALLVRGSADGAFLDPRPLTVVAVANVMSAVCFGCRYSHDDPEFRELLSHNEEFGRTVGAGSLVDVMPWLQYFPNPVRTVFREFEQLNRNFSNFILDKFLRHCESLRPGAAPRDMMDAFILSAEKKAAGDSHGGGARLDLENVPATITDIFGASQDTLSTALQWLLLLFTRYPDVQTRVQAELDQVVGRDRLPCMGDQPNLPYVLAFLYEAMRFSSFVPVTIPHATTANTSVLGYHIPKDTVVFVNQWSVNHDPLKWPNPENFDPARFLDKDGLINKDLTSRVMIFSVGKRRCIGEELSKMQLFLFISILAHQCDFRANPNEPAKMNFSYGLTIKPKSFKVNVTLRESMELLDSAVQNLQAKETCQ
# CYP1A1 = target: T2, CYP1A1 (Homo sapiens, UniProt P04798); assay: Inhibition of human recombinant CYP1A1 using 7-ethoxyresorufin as substrate assessed as percent enzyme activity at 1 uM after 15 mins in presence of NADPH by EROD assay relative to control; type: ADME; parameters: scale not given: the % may be the effect or the level left; details: recombinant CYP1A1, probe 7-ethoxyresorufin, read-out: Activity
# T2 sequence (P04798 whole entry): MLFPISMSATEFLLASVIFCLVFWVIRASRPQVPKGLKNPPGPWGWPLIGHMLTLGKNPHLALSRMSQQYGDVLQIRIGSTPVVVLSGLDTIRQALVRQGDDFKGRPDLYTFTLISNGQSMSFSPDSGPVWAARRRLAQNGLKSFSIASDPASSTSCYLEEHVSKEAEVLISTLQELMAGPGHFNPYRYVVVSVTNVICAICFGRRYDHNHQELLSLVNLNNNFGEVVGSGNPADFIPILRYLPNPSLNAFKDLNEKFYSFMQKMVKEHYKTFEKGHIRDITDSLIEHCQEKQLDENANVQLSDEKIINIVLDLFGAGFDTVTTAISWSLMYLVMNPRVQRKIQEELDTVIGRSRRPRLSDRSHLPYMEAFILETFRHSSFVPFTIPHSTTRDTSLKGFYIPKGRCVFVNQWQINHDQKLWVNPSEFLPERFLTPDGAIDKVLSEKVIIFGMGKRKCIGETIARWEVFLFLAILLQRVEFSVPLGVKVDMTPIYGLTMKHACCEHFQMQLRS
# CYP1A2 = target: T3, CYP1A2 (Homo sapiens, UniProt P05177); assay: Inhibition of human recombinant CYP1A2 using 7-ethoxyresorufin as substrate assessed as percent enzyme activity at 1 uM after 30 mins in presence of NADPH by EROD assay relative to control; type: ADME; parameters: scale not given: the % may be the effect or the level left; details: recombinant CYP1A2, probe 7-ethoxyresorufin, read-out: Activity
# T3 sequence (P05177 whole entry): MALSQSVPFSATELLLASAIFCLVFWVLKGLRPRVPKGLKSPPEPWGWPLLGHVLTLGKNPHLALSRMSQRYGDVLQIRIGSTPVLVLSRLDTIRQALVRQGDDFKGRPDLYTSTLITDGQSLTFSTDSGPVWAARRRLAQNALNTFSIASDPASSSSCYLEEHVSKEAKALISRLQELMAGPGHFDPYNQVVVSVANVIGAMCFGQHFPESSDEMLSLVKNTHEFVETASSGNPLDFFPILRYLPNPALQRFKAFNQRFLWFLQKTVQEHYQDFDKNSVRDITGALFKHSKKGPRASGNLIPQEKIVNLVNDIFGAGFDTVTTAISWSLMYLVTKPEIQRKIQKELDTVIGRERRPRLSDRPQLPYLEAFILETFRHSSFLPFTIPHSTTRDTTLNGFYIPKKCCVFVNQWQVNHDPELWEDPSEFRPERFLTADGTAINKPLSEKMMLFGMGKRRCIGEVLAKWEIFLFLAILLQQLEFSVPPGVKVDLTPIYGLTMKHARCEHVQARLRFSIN
# Cytochrome P450 1B1 [2] = target: T1, Cytochrome P450 1B1; assay: Inhibition of human recombinant CYP1B1 using 7-ethoxyresorufin as substrate after 30 mins in presence of NADPH by EROD assay
# Cytochrome P450 1A1 = target: T4, Cytochrome P450 1A1 (Homo sapiens, UniProt P04798); assay: Inhibition of human recombinant CYP1A1 using 7-ethoxyresorufin as substrate after 15 mins in presence of NADPH by EROD assay; type: ADME
# T4 sequence (P04798 whole entry): T2 sequence (P04798 whole entry)
# Cytochrome P450 1A2 = target: T5, Cytochrome P450 1A2 (Homo sapiens, UniProt P05177); assay: Inhibition of human recombinant CYP1A2 using 7-ethoxyresorufin as substrate after 30 mins in presence of NADPH by EROD assay; type: ADME
# T5 sequence (P05177 whole entry): T3 sequence (P05177 whole entry)
# Homo sapiens [3] = organism: Homo sapiens; assay: Selectivity ratio of IC50 for human recombinant CYP1A1 to IC50 for human recombinant CYP1B1
# Homo sapiens [4] = organism: Homo sapiens; assay: Selectivity ratio of IC50 for human recombinant CYP1A2 to IC50 for human recombinant CYP1B1
# Cytochrome P450 1B1 [5] = target: T1, Cytochrome P450 1B1; assay: Binding affinity to human C-terminal 4His-tagged CYP1B1 expressed in Escherichia coli DH5alpha assessed as spectral dissociation constant by spectrophotometric analysis; details: read-out: Ks
# [6] = Aqueous solubility of compound in 9:1 PBS/ethanol buffer by shake flask method; type: physicochemical
# [7] = Solubility of compound in pH 7.4 PBS by shake flask met; type: physicochemical; details: buffer
compound,measurement,setting,value
[N-]=[N+]=N[C@H]1CC[C@H](c2cc(=O)c3ccc4ccccc4c3o2)CC1,"activity at 0.5 h, 1 µM",Cytochrome P450 1B1 [1],-1.8%
same,"activity at 0.25 h, 1 µM",CYP1A1,39.5%
same,"activity at 0.5 h, 1 µM",CYP1A2,46.5%
same,IC50,Cytochrome P450 1B1 [2],135 nM
same,IC50,Cytochrome P450 1A1,1040 nM
same,IC50,Cytochrome P450 1A2,1190 nM
same,Ratio IC50,Homo sapiens [3],7.7
same,Ratio IC50,Homo sapiens [4],8.8
same,Kd,Cytochrome P450 1B1 [5],5400 nM
[N-]=[N+]=Nc1ccc(-c2cc(=O)c3ccc4ccccc4c3o2)cc1,"activity at 0.5 h, 1 µM",Cytochrome P450 1B1 [1],-0.5%
same,"activity at 0.25 h, 1 µM",CYP1A1,2.3%
same,"activity at 0.5 h, 1 µM",CYP1A2,-13.6%
same,IC50,Cytochrome P450 1B1 [2],2.6 nM
same,IC50,Cytochrome P450 1A1,9.5 nM
same,IC50,Cytochrome P450 1A2,93.8 nM
same,Ratio IC50,Homo sapiens [3],3.6
same,Ratio IC50,Homo sapiens [4],35.6
same,solubility thermodynamic,[6],< 1 µM
same,Kd,Cytochrome P450 1B1 [5],900 nM
CC(=O)S[C@H]1CC[C@@H](c2cc(=O)c3ccc4ccccc4c3o2)CC1,"activity at 0.5 h, 1 µM",Cytochrome P450 1B1 [1],-1.3%
same,"activity at 0.25 h, 1 µM",CYP1A1,3.8%
same,"activity at 0.5 h, 1 µM",CYP1A2,42.7%
same,IC50,Cytochrome P450 1B1 [2],24.3 nM
same,IC50,Cytochrome P450 1A1,65 nM
same,Ratio IC50,Homo sapiens [3],2.7
same,Kd,Cytochrome P450 1B1 [5],4000 nM
O=c1cc(-c2ccccc2)oc2c1ccc1ccccc12 [ALPHA-NAPHTHOFLAVONE],"activity at 0.5 h, 1 µM",Cytochrome P450 1B1 [1],-11.3%
same,"activity at 0.25 h, 1 µM",CYP1A1,0.4%
same,"activity at 0.5 h, 1 µM",CYP1A2,-10.1%
same,IC50,Cytochrome P450 1A1,53.8 nM
same,solubility thermodynamic,[6],2.63 µM
same,solubility,[7],Insoluble
O=c1cc([C@H]2CC[C@H](S)CC2)oc2c1ccc1ccccc12,"activity at 0.5 h, 1 µM",Cytochrome P450 1B1 [1],1.8%
same,"activity at 0.25 h, 1 µM",CYP1A1,1.3%
same,"activity at 0.5 h, 1 µM",CYP1A2,0.6%
same,IC50,Cytochrome P450 1B1 [2],40.3 nM
same,IC50,Cytochrome P450 1A1,146 nM
same,IC50,Cytochrome P450 1A2,689 nM
same,Ratio IC50,Homo sapiens [3],3.6
same,Ratio IC50,Homo sapiens [4],17.1
same,Kd,Cytochrome P450 1B1 [5],8900 nM
[N-]=[N+]=Nc1cccc(-c2cc(=O)c3ccc4ccccc4c3o2)c1,"activity at 0.5 h, 1 µM",Cytochrome P450 1B1 [1],0.7%
same,"activity at 0.25 h, 1 µM",CYP1A1,1.4%
same,"activity at 0.5 h, 1 µM",CYP1A2,6.9%
same,IC50,Cytochrome P450 1B1 [2],1.8 nM
same,IC50,Cytochrome P450 1A1,27.1 nM
same,IC50,Cytochrome P450 1A2,74.7 nM
same,Ratio IC50,Homo sapiens [3],15.5
same,Ratio IC50,Homo sapiens [4],42.8
same,Kd,Cytochrome P450 1B1 [5],800 nM
C=C=C[C@H]1CC[C@H](c2cc(=O)c3ccc4ccccc4c3o2)CC1,"activity at 0.5 h, 1 µM",Cytochrome P450 1B1 [1],-0.4%
same,"activity at 0.25 h, 1 µM",CYP1A1,3%
same,"activity at 0.5 h, 1 µM",CYP1A2,-4.5%
same,IC50,Cytochrome P450 1B1 [2],13.4 nM
same,IC50,Cytochrome P450 1A1,13.6 nM
same,IC50,Cytochrome P450 1A2,36.4 nM
same,Ratio IC50,Homo sapiens [3],1.02
same,Ratio IC50,Homo sapiens [4],2.7
same,Kd,Cytochrome P450 1B1 [5],2400 nM
[N-]=[N+]=N[C@H]1CC[C@@H](c2cc(=O)c3ccc4ccccc4c3o2)CC1,"activity at 0.5 h, 1 µM",Cytochrome P450 1B1 [1],-15.3%
same,"activity at 0.25 h, 1 µM",CYP1A1,39.6%
same,"activity at 0.5 h, 1 µM",CYP1A2,29.6%
same,IC50,Cytochrome P450 1B1 [2],4.4 nM
same,IC50,Cytochrome P450 1A1,525 nM
same,IC50,Cytochrome P450 1A2,667 nM
same,Ratio IC50,Homo sapiens [3],120
same,Ratio IC50,Homo sapiens [4],153
same,solubility thermodynamic,[6],2.67 µM
same,Kd,Cytochrome P450 1B1 [5],2600 nM
CC(=O)S[C@H]1CC[C@H](c2cc(=O)c3ccc4ccccc4c3o2)CC1,"activity at 0.5 h, 1 µM",Cytochrome P450 1B1 [1],-4.7%
same,"activity at 0.25 h, 1 µM",CYP1A1,1.1%
same,"activity at 0.5 h, 1 µM",CYP1A2,45.4%
same,IC50,Cytochrome P450 1B1 [2],29.4 nM
same,IC50,Cytochrome P450 1A1,15.9 nM
same,IC50,Cytochrome P450 1A2,991 nM
same,Ratio IC50,Homo sapiens [3],0.54
same,Ratio IC50,Homo sapiens [4],33.7
same,Kd,Cytochrome P450 1B1 [5],6700 nM
C=C=C[C@H]1CC[C@@H](c2cc(=O)c3ccc4ccccc4c3o2)CC1,"activity at 0.5 h, 1 µM",Cytochrome P450 1B1 [1],3.1%
same,"activity at 0.25 h, 1 µM",CYP1A1,5.5%
same,"activity at 0.5 h, 1 µM",CYP1A2,4.3%
same,IC50,Cytochrome P450 1B1 [2],68.1 nM
same,IC50,Cytochrome P450 1A1,33 nM
same,Ratio IC50,Homo sapiens [3],0.48
same,Kd,Cytochrome P450 1B1 [5],25400 nM
[N-]=[N+]=NCC1CCC(c2cc(=O)c3ccc4ccccc4c3o2)CC1 (mixture of isomers),"activity at 0.5 h, 1 µM",Cytochrome P450 1B1 [1],2.2%
same,"activity at 0.25 h, 1 µM",CYP1A1,6.3%
same,"activity at 0.5 h, 1 µM",CYP1A2,22.3%
same,IC50,Cytochrome P450 1B1 [2],23.5 nM
same,IC50,Cytochrome P450 1A1,216 nM
same,IC50,Cytochrome P450 1A2,433 nM
same,Ratio IC50,Homo sapiens [3],9.2
same,Ratio IC50,Homo sapiens [4],18.5
same,Kd,Cytochrome P450 1B1 [5],3900 nM
O=c1cc(-c2ccc(O)cc2)oc2c1ccc1ccccc12,"activity at 0.5 h, 1 µM",Cytochrome P450 1B1 [1],3.7%
same,"activity at 0.25 h, 1 µM",CYP1A1,6.3%
same,"activity at 0.5 h, 1 µM",CYP1A2,10.4%
same,IC50,Cytochrome P450 1B1 [2],43.4 nM
same,IC50,Cytochrome P450 1A1,43 nM
same,IC50,Cytochrome P450 1A2,909 nM
same,Ratio IC50,Homo sapiens [3],0.99
same,Ratio IC50,Homo sapiens [4],21
O=c1cc(C2CCCCC2)oc2c1ccc1ccccc12,"activity at 0.5 h, 1 µM",Cytochrome P450 1B1 [1],25.4%
same,"activity at 0.25 h, 1 µM",CYP1A1,51.5%
same,"activity at 0.5 h, 1 µM",CYP1A2,51.8%
same,IC50,Cytochrome P450 1B1 [2],540 nM
same,solubility thermodynamic,[6],9.65 µM
same,Kd,Cytochrome P450 1B1 [5],5900 nM
